This experiment addresses T1, GST-Bfl-1 (Homo sapiens, UniProt Q16548).
T1 construct: lacking their C-terminal transmembrane domains (about the last 20 amino acids) (“ΔTM”); made in house; host or cells: XL-1 Blue E. coli, pGEX 4T-1
T1 sequence (Q16548 1-155 limits assumed): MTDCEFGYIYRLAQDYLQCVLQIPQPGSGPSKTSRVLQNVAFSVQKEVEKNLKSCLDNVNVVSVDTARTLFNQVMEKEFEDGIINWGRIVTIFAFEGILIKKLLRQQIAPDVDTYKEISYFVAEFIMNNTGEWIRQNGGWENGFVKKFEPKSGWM
Description: Bfl-1/FITC-Bid BH3 competitive fluorescence polarization assay. The format is binding. As to conditions: primary HTS hits, MLSCN library (PubChem SIDs), Table 5B. Here is the method:
A FPA was performed to determine the binding affinity of FITC-Bid BH3 peptide to Bcl-2 proteins. […] IC50 determinations were performed using GraphPad Prism software (GraphPad, Inc., San Diego, Calif.). FPA competition assays were performed using the same procedure described above, except that 100 nM of GST-Bfl-1 protein in a volume of 45 μl was incubated with 5 μl (50 μM) test compounds in DMSO per well for 30 min prior to addition of 50 μl (5 nM) FITC-Bid BH3 peptide. The final DMSO concentration was 5% when the reactions brought to fall volume of 100 μl. Fluorescence polarization was measured after 10 min. Compounds that reduced the fluorescence polarization by 50% were considered hits.
A general note: Fluorescence polarisation rises when a labelled molecule tumbles more slowly, as on binding a larger partner.

Turning to `O=C(COC(=O)CN1C(=O)c2ccccc2C1=O)Nc1ncc(Cl)cc1Cl` [Compound 3711621], the “% Activity” value is 58.7% and the FRatio is 1.36.
Taken in the same sequence, the figures for `Cc1c(Cl)cnc(NC(=O)COC(=O)C(NC(=O)c2ccco2)C(C)C)c1Cl` (stereo not shown) [Compound 3711777] were 108.1% and 0.66.
On to `Cc1ccc(S(=O)(=O)NCC(=O)OCC(=O)Nc2ncc(Cl)cc2Cl)cc1` [Compound 3711819], for which the “% Activity” value is on record as 63.4% and the FRatio was 0.8.
As to `Cc1ccc(-n2c(SCc3cc(=O)n4ccsc4n3)nnc2-c2cccnc2)c(C)c1` [Compound 3712302], the “% Activity” value was 80.3% and the FRatio came to 0.96.
Consider `COc1ccccc1NCCC(=O)OCC(=O)NCc1ccco1` [Compound 3712399], for which the “% Activity” value amounted to 85.2% and the FRatio is listed as 0.95.
Regarding `O=C(COC(=O)c1cccs1)NCc1ccco1` [Compound 3712480], the “% Activity” value is 79.7% and the FRatio is recorded as 0.96.
Regarding `CCS(=O)(=O)N1Cc2ccccc2CC1C(=O)N1CCN(c2cccc(C)c2C)CC1` (stereo not shown) [Compound 3712504], the “% Activity” value worked out at 54.7% and the FRatio was determined as 0.25.
The like results for `Cc1cc(C)c(NC(=O)C2=CC3C(N=C4SC=CN43)S2)c(C)c1` (stereo not shown) [Compound 3712588] were, in that order, 66.1% and 1.05.
Taken in the same sequence, the figures for `Cc1ccc(OCCSc2nnc(-c3ccncc3)n2C)cc1` [Compound 3712590] were 68.9% and 0.91.
With `COc1ccc(S(=O)(=O)N2CCCC2C(=O)Nc2nnc(-c3cccnc3)s2)cc1` (stereo not shown) [Compound 3713012], the “% Activity” value amounted to 50.9% and the FRatio is 0.9.
In the case of `Cc1ccc(OCCC(=O)OCC(=O)Nc2ccc(Cl)cn2)cc1` [Compound 3713376], the “% Activity” value stood at 54.8% and the FRatio was 1.43.
The like results for `O=C(c1cnccn1)N1CCc2ccccc21` [Compound 3713383] were, in that order, 80.1% and 0.72.
As to `FC(F)(F)c1cnc(Nc2ccc(N3CCOCC3)cc2)c(Cl)c1` [Compound 3713921], the “% Activity” value is listed as 51.4% and the FRatio is given as 0.51.
For the compound `COc1ccc(NC(=O)c2cc(CN3C(=O)c4ccccc4C3=O)ccc2OC)cn1` [Compound 3713992], the “% Activity” value is 66.9% and the FRatio stood at 1.47.
The like results for `CC(C)CN(C(=O)COC(=O)c1cc2c(s1)CCC2)C1CCS(=O)(=O)C1` (stereo not shown) [Compound 3714271] were, in that order, 53.1% and 0.67.
The like results for `CCOc1ccc(C(=O)OCC(=O)NCc2ccco2)cc1OCC` [Compound 3714498] were, in that order, 71.4% and 1.
For `COc1cc(CC(=O)OCC(=O)Nc2ncc(Cl)cc2Cl)cc(OC)c1OC` [Compound 3714968], the “% Activity” value stood at 54% and the FRatio was 1.42.
Taken in the same sequence, the figures for `CC(=N)/C(C#N)=C(/O)CSc1nnc(Nc2c(C)cccc2C)s1` [Compound 3715042] were 63.1% and 0.63.
The like results for `O=C(NCc1ccco1)c1c2c(nc3ccccc13)CCC2` [Compound 3715091] were, in that order, 62.4% and 0.86.
Taken in the same sequence, the figures for `O=C(COC(=O)c1cncc(Br)c1)NCc1ccco1` [Compound 3715512] were 55.4% and 0.95.
Take `Cn1c(C(C#N)C2=C(Cl)C(=O)N(c3ccccc3)C2=O)nc2ccccc21` (stereo not shown) [Compound 3716185]: the “% Activity” value is on record as 89.8% and the FRatio is listed as 0.68.
`C=CCn1c(SCc2cc(=O)n3ccsc3n2)nnc1C1CCCCC1` [Compound 3716212]: the “% Activity” value is on record as 54.8% and the FRatio came to 0.6.
`Cc1ccc(S(=O)(=O)N2CCCCC2)cc1C(=O)Nc1nc[nH]n1` [Compound 3716232]: the “% Activity” value came out at 50.5% and the FRatio amounted to 0.86.
In the case of `COCCn1c(SCC(=O)Nc2ncc(Cl)c(C)c2Cl)nc2ccccc21` [Compound 3717339], the “% Activity” value is listed as 64.7% and the FRatio turned out to be 0.94.
On to `CC(=N)/C(C#N)=C(/O)CSc1nnc(NC(C)C)s1` [Compound 3717601], for which the “% Activity” value is on record as 84.1% and the FRatio is listed as 0.47.
For the compound `CCn1ccc(C(=O)Nc2ccc(S(=O)(=O)Nc3ccccc3OC)cc2)n1` [Compound 4241115], the “% Activity” value amounted to 82% and the FRatio was found to be 0.87.
The like results for `O=C(CSc1nc(O)c2ccccc2n1)c1ccc(O)c(O)c1` [Compound 4242102] were, in that order, 64.2% and 0.57.
With `O=C(O)c1cccc(-n2cccc2/C=N/O)c1` [Compound 4243236], the “% Activity” value came out at 70% and the FRatio was 0.86.
Taken in the same sequence, the figures for `CSc1ccccc1NC(=O)c1noc2c1CCC2` [Compound 4244309] were 75.7% and 0.44.
The like results for `COc1ccc(C(N)CCc2ccc(C)o2)cc1` (stereo not shown) [Compound 4244526] were, in that order, 67.6% and 0.84.
Taken in the same sequence, the figures for `Cc1c(C(=O)OCC2CCCO2)[nH]c2c1C(=O)CC(c1ccco1)C2` (stereo not shown) [Compound 4244684] were 54.3% and 0.79.
As for `COc1ccc(-c2coc3c(CN4CCCCC4)c(O)c(CN4CCCCC4)c(O)c3c2=O)cc1` [Compound 4244723], the “% Activity” value was determined as 82.5% and the FRatio was 0.51.
As for `O=C(NCc1ccccn1)c1ccc2nc(-c3ccco3)c(-c3ccco3)nc2c1` [Compound 4245216], the “% Activity” value was determined as 107.1% and the FRatio came out at 1.18.
The like results for `COC(=O)c1ccccc1NC(=O)c1noc2c1CCC2` [Compound 4245926] were, in that order, 72.8% and 0.46.
The like results for `Cc1cc(C)c2cc3c(ccn3C3OC[C@H](O)[C@H](O)[C@H]3O)cc2n1` (stereo partly shown) [Compound 4247900] were, in that order, 52.1% and 1.1.
`COc1ccc(-c2nc3n(n2)C(c2cccnc2)C(C(N)=O)=C(C)N3)cc1` (stereo not shown) [Compound 4250160]: the “% Activity” value is 88.5% and the FRatio was 0.81.
As to `O=C(NCCCN1CCN(Cc2ccccc2)CC1)C1CCN(c2nnc(-n3cccc3)s2)CC1` [Compound 4250401], the “% Activity” value is 50.8% and the FRatio worked out at 0.86.
The like results for `COC(=O)CNc1c(-c2ccccn2)nc2ccc(Br)cn12` [Compound 4251133] were, in that order, 51.2% and 1.16.
Consider `O=c1c2cc(N3CCOCC3)ccc2[nH]c(=S)n1CCCN1CCCCCC1` [Compound 4251175], for which the “% Activity” value was 62.3% and the FRatio is listed as 0.65.
Taken in the same sequence, the figures for `C=CCNS(=O)(=O)c1nc(C)c(Cl)c(C)c1C#N` [Compound 4251530] were 69.9% and 0.59.
As to `CCOC(=O)N1CCN(c2cc(NCCC(=O)O)c3c4c(onc24)-c2ccccc2C3=O)CC1` [Compound 4252106], the “% Activity” value is reported as 78.1% and the FRatio was 0.86.

These data come from patent publication US20090118135A1, “METHODS AND COMPOUNDS FOR REGULATING APOPTOSIS” (The Burnham Institute, priority 2007, published 2009).
